Activity calls are given as the source filed them. The calls are words filed in the database; no cut-off is given here.
Legend:
Rattus norvegicus [1] = assay: Cognitive enhancing effect in Sprague-Dawley rat assessed as increase in total exploration time for novel objects in retention trial at 0.03 mg/kg, po administered 1 hr prior to acquisition trial measured 24 hrs post acquisition trial for 5 mins by novel object recognition test; format: functional, organism-based
[2] = molecular target: T1, 5-hydroxytryptamine receptor 2C (Rattus norvegicus, UniProt P08909)
T1 sequence (P08909 whole entry): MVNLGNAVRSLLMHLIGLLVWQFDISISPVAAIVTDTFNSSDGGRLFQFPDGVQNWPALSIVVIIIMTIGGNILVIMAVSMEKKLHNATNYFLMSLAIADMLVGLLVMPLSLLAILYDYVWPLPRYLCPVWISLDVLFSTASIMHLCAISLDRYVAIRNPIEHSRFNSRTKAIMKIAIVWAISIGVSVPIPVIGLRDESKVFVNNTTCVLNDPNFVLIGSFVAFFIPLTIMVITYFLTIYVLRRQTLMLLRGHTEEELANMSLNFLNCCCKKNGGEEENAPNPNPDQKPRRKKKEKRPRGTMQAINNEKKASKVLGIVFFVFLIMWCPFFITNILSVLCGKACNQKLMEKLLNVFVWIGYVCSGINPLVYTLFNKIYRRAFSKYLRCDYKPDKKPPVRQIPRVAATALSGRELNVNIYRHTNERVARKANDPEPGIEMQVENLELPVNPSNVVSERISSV

[3] = molecular target: T2, 5-hydroxytryptamine receptor 6 (Homo sapiens, UniProt P50406)
Mus musculus [4] = conditions: Kunming
Description: (§1) Antipsychotic activity in po dosed Kunming mouse assessed as reduction in apomorphine-induced climbing pretreated for 30 mins followed by apomorphine injection measured at 10 to 30 mins post dose

D(1A) dopamine receptor [5] = molecular target: D(1A) dopamine receptor (Rattus norvegicus, UniProt P18901); assay: Displacement of [3H]-SCH23390 from dopamine D1 receptor in rat strriatum homogenates after 20 mins by liquid scintillation counting
[6] = AUC (0 to infinity) in Sprague-Dawley rat at 10 mg/kg, po by LC-MS/MS analysis; format: ADME, organism-based; parameters: dose 10 mg/kg, route oral, time infinity; conditions: in vivo
Rattus norvegicus [7] = assay: Antipsychotic activity in po dosed Sprague-Dawley rat assessed as reduction in conditioned avoidance response measured at 90 mins post single dose; format: functional; conditions: 1.5 h
[8] = molecular target: 5-hydroxytryptamine receptor 7 (Rattus norvegicus, UniProt P32305); assay: Displacement of [3H]-5-CT from 5-HT7 receptor in rat cerebral cortex homogenates after 30 mins by liquid scintillation counting
[9] = molecular target: Sodium-dependent serotonin transporter (Rattus norvegicus, UniProt P31652); assay: Displacement of [3H]-paroxetine from SERT in rat cerebral cotex homogenates after 10 mins by liquid scintillation counting
Histamine H3 receptor = Histamine H3 receptor (Rattus norvegicus, UniProt Q9QYN8); assay: Displacement of [3H] methylhistamine from histamine H3 receptor in rat cerebral cotex homogenates after 30 mins by liquid scintillation counting
Mus musculus [10] = assay: Induction of serum prolactin levels in Kunming mouse at 0.6 to 5.4 mg/kg, po administered for 28 days measured at 180 mins post last dose by EIA; format: organism-based; conditions: in vivo, 3 h
[11] = Therapeutic index, ratio of ED50 for catalepsy in Kunming mouse to ED50 for apomorphine-induced climbing in Kunming mouse; format: toxicity, organism-based; conditions: in vivo, read-out: Ratio ED50
[12] = Therapeutic index, ratio of ED50 for catalepsy in Kunming mouse to ED50 for MK-801-induced hyperactivity in Kunming mouse; format: toxicity, organism-based; conditions: in vivo, read-out: Ratio ED50
[13] = molecular target: Adrenergic receptor alpha-2 (Rattus norvegicus, UniProt P22086+P19328+P22909); assay: Displacement of [3H]-rauwolscine from adrenergic alpha2 receptor in rat cerebral cotex homogenates after 60 mins by liquid scintillation counting
[14] = molecular target: T2, 5-hydroxytryptamine receptor 6; assay: biochemical
Rattus norvegicus [15] = assay: AUC (0 to infinity) in Sprague-Dawley rat at 1 mg/kg, iv by LC-MS/MS analysis; format: ADME, organism-based; parameters: dose 1 mg/kg, route intravenous, time infinity; conditions: in vivo
[16] = Oral bioavailability in Sprague-Dawley rat at 10 mg/kg by LC-MS/MS analysis; format: ADME, organism-based; conditions: in vivo
Histamine H1 receptor = Histamine H1 receptor (Cavia porcellus, UniProt P31389)
Description: Displacement of [3H]-mepyramine from histamine H1 receptor in guinea pig cerebellum homogenates incubated for 60 mins by liquid scintillation counting

[17] = Half life in Sprague-Dawley rat at 10 mg/kg, po by LC-MS/MS analysis; format: ADME, organism-based; conditions: in vivo
D(2) dopamine receptor = D(2) dopamine receptor (Homo sapiens, UniProt P14416); assay: Antagonist activity at dopamine D2 receptor long isoform (unknown origin) expressed in HEK293 cells assessed as inhibition of dopamine-induced calcium flux at 10 uM after 15 mins by calcium 4-dye based FLIPR assay relative to control; format: functional, cell-based
[18] = molecular target: T3, 5-hydroxytryptamine receptor 1A (Rattus norvegicus, UniProt P19327)
T3 sequence (P19327 whole entry): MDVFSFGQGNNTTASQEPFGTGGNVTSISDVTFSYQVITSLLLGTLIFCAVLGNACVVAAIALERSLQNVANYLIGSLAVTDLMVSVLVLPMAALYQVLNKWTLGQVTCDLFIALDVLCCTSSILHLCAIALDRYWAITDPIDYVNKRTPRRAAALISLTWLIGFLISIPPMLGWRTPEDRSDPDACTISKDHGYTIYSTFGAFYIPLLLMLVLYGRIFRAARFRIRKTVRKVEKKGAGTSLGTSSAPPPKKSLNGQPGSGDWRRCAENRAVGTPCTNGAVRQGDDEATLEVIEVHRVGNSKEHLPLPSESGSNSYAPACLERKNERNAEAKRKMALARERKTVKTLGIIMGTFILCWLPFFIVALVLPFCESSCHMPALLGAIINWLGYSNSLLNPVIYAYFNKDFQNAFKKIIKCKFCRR

Mus musculus [19] = species on record: Mus musculus; assay: animal or person; conditions: Kunming, po
Description: as §1

[20] = molecular target: Sigma non-opioid intracellular receptor 1 (Cavia porcellus, UniProt Q60492); assay: Displacement of [3H]-(+)-pentazocine from sigma1 receptor in guinea pig brain membranes after 180 mins by liquid scintillation counting; format: cell membranes, Membrane
[21] = Displacement of [3H] nisoxetine from NET in rat hippocampal membrane homogenates after 8 hrs by liquid scintillation counting; format: cell membranes
D(1A) dopamine receptor [22] = molecular target: D(1A) dopamine receptor (Homo sapiens, UniProt P21728); assay: Antagonist activity at human dopamine D1 receptor expressed in HEK293T cells assessed as inhibition of dopamine-induced cAMP accumulation preincubated for 15 mins followed by dopamine induction and measured after 30 mins by HTRF assay; format: functional, cell-based
[23] = Acute toxicity in po dosed Kunming mouse assessed as mortality measured after 24 hrs post dose; format: organism-based; conditions: in vivo
[24] = molecular target: Muscarinic acetylcholine receptor M1 (Homo sapiens, UniProt P11229); assay: Displacement of [3H]-QNB from M1 receptor (unknown origin) in cell membrane homogenates after 30 mins by liquid scintillation counting
[25] = molecular target: 5-hydroxytryptamine receptor 1A (Homo sapiens, UniProt P08908)
Sequence of 5-hydroxytryptamine receptor 1A (Homo sapiens, UniProt P08908) (P08908 whole entry): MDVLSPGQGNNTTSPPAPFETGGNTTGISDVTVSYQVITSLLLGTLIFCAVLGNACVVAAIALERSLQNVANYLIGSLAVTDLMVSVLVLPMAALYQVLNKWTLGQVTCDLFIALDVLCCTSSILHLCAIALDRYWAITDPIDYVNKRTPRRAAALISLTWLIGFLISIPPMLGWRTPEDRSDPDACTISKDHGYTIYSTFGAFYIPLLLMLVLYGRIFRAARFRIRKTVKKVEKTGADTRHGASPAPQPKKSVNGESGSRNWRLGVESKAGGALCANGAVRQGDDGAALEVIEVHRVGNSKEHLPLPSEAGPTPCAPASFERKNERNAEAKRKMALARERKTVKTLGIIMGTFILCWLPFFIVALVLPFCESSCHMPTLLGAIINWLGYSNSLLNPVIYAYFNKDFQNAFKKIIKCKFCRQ

T2 sequence (P50406 whole entry): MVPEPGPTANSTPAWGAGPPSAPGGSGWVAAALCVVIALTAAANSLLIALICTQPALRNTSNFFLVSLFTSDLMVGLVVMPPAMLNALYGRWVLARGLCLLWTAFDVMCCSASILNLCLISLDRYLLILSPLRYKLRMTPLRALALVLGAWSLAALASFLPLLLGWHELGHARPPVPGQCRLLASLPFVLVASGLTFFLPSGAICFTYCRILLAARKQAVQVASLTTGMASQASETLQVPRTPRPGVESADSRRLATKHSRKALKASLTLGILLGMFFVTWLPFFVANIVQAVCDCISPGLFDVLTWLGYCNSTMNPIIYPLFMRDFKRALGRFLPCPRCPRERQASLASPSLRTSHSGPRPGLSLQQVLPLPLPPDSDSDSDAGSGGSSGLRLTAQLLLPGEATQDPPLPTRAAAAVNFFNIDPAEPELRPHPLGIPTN
Sequence of Histamine H1 receptor (P31389 whole entry): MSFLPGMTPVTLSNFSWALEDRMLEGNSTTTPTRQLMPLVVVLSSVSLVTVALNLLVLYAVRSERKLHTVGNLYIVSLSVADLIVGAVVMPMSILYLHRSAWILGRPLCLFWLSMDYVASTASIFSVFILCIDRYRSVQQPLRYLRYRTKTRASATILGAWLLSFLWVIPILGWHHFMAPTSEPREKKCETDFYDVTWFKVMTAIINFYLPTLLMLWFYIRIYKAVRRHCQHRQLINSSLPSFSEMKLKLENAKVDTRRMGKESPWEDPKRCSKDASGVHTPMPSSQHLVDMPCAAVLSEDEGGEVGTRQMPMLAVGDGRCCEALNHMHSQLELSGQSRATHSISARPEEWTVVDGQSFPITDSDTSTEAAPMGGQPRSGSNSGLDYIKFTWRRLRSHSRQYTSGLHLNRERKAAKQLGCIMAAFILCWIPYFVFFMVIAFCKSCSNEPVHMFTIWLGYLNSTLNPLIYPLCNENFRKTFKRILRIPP
Sequence of D(2) dopamine receptor (P14416 whole entry, canonical isoform): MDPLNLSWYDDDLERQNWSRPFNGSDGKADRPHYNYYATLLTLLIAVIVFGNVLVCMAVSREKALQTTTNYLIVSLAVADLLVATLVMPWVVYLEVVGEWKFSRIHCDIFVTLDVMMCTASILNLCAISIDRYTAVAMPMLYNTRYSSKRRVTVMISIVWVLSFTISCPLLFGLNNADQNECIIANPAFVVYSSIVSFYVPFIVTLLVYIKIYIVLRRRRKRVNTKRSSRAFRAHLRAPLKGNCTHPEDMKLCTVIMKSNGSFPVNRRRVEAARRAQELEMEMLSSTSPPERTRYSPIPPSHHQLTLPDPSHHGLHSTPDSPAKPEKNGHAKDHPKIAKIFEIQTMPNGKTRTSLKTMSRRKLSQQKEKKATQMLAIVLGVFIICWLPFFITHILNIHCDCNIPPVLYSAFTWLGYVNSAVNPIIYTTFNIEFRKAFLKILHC
Sequence of Histamine H3 receptor (Q9QYN8 whole entry): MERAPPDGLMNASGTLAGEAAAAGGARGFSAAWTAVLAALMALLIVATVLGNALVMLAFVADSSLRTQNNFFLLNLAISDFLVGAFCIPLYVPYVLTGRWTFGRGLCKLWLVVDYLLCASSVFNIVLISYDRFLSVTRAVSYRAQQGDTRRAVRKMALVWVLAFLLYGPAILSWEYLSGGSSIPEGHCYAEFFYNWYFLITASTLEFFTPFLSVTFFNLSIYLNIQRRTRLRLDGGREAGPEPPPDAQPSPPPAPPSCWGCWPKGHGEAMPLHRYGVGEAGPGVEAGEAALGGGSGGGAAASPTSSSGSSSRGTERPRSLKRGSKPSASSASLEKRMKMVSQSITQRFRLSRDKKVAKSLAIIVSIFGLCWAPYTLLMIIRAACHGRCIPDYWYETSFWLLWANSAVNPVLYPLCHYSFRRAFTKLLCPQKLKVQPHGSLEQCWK
Sequence of Sigma non-opioid intracellular receptor 1 (Q60492 whole entry): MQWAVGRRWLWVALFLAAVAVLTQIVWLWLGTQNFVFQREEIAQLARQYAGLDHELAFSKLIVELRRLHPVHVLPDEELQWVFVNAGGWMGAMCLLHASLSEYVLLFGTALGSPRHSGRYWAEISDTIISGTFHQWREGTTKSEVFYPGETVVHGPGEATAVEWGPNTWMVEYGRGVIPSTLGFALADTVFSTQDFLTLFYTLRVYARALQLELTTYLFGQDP
Sequence of Muscarinic acetylcholine receptor M1 (P11229 whole entry): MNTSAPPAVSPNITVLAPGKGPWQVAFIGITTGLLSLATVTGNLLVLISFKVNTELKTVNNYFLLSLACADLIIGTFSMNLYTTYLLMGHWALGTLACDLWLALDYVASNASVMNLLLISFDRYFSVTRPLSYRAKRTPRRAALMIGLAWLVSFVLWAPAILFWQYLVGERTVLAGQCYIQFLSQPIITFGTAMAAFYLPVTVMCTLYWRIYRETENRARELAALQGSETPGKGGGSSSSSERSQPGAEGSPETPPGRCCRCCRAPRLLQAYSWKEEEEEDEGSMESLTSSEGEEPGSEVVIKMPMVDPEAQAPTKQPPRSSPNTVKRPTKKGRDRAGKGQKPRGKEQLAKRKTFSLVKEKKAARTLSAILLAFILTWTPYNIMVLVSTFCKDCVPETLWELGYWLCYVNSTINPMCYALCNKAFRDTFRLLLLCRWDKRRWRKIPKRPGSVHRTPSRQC
Sequence of D(1A) dopamine receptor (Homo sapiens, UniProt P21728) (P21728 whole entry): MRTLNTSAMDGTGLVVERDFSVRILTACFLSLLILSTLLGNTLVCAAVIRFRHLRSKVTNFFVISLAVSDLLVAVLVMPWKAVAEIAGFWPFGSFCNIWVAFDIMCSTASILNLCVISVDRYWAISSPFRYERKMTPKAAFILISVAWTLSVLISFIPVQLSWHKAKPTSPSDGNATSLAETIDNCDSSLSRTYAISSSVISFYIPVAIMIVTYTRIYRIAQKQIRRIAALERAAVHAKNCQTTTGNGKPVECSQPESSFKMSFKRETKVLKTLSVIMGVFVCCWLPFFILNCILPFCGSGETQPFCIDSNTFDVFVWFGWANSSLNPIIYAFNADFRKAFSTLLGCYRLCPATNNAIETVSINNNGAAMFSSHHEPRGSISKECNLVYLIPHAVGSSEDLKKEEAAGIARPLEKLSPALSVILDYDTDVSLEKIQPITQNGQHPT
Sequence of D(1A) dopamine receptor (Rattus norvegicus, UniProt P18901) (P18901 whole entry): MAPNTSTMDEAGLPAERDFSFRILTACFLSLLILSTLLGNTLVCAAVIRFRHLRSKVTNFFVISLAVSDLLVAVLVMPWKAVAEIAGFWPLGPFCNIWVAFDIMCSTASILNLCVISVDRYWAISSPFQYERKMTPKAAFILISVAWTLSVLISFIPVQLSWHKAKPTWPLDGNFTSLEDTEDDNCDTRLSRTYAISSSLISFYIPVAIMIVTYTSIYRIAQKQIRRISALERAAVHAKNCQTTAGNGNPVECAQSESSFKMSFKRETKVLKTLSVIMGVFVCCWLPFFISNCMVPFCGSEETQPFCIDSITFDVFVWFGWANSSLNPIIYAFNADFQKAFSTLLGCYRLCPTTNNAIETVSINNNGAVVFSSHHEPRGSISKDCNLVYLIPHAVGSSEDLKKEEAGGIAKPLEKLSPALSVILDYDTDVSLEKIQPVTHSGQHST
Sequence of 5-hydroxytryptamine receptor 7 (P32305 whole entry): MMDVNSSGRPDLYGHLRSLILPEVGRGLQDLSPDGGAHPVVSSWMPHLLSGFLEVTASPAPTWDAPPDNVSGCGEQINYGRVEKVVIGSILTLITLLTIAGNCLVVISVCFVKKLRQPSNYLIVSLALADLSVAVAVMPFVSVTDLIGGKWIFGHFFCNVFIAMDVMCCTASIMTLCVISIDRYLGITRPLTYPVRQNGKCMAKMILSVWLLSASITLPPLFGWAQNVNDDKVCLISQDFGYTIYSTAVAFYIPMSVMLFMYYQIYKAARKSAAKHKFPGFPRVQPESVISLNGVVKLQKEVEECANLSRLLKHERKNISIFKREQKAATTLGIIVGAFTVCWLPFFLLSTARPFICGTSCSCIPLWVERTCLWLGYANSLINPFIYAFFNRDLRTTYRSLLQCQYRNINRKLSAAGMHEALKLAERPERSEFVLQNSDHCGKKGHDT
Sequence of Sodium-dependent serotonin transporter (P31652 whole entry): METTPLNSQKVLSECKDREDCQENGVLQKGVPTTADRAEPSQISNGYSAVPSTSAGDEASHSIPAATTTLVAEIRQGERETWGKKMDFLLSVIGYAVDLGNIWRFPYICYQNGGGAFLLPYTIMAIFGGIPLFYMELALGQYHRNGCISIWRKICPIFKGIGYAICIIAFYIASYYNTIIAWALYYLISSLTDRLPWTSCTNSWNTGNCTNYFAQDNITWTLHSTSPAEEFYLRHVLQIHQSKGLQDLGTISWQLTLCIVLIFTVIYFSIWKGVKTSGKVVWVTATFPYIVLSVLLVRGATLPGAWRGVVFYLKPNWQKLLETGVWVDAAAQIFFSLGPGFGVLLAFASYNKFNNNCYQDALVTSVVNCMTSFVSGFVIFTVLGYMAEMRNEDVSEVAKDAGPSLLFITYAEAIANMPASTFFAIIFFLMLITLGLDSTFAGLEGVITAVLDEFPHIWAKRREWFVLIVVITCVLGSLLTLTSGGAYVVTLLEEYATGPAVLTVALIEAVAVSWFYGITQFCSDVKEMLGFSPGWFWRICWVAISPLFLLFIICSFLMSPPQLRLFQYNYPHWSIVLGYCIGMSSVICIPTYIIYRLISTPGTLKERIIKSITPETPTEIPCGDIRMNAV

In the case of `O=C(CCCCN1CCC(c2noc3cc(F)ccc23)CC1)c1cc2c3c(c1)CCN3C(=O)CC2`, the Activity (Rattus norvegicus [1]) is reported as “inactive”, the Ki [2] is reported as 616 nM and the IC50 [3] is reported as 178 nM. The Activity (Mus musculus [4]) was “Dose-dependent effect”, the Ki (D(1A) dopamine receptor [5]) was 76.9 nM and the AUC(0-inf) [6] was 18500 ng·h/mL. It also gave an ED50 (Rattus norvegicus [7]) of 1.46 mg/kg, a Ki [8] of 226 nM and a Ki [9] greater than 1000 nM. For the same compound, the Ki (Histamine H3 receptor) was greater than 1000 nM, the Activity (Mus musculus [10]) was “Non-Toxic” and the selectivity ratio [11] was 129. It also gave a selectivity ratio [12] of 302, a Ki [13] greater than 1000 nM and a Ki [14] of 5.55 nM. For the same compound, the AUC (Rattus norvegicus [15]) was 3151.2 ng·h/mL, the bioavailability [16] was 58.8% and the Ki (Histamine H1 receptor) was 630 nM. The half-life [17] was 2.02 h, the inhibition (D(2) dopamine receptor) was 93.3% and the Ki [18] was 8.6 nM. The ED50 (Mus musculus [19]) was 0.61 mg/kg, the Ki [20] was greater than 1000 nM and the Ki [21] was greater than 1000 nM. It also gave an IC50 (D(1A) dopamine receptor [22]) of 366 nM, an LD50 at 24 h [23] greater than 2000 mg/kg and a Ki [24] greater than 1000 nM. It also gave an IC50 [25] of 588 nM.
